Source: the supplement of paper PMC10307832

Legend:
Assay in all cases: relative viability (nuclei count vs DMSO), 5 days (fraction); higher = more cells survive
[1] = compound: Cc1nc(C(=O)NCC(=O)O)c(O)c2ccc(Oc3ccccc3)cc12 [FG-4592] + COc1cccc2cc(-c3nc([C@H]4CC[C@H](C(=O)O)CC4)n4ncnc(N)c34)[nH]c12 [OSI-027] (partner 0.5 µM)
Method in brief: (§1)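 Lung cancer cell lines in 1536-well plates were dosed by pin tool the day after seeding, either with one drug alone or with a fixed anchor-drug dose plus five library-drug doses (not always all listed) in √10 steps. After 5 days, cells were fixed and their nuclei stained in one step (final 0.05% Triton X-100, 1% formaldehyde, 1 ug/ml Hoechst), then counted on 4× images. Relative viability is the nuclei count in treated wells divided by that in vehicle wells. Values are medians of duplicate plates.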

[2] = compound: Cc1nc(C(=O)NCC(=O)O)c(O)c2ccc(Oc3ccccc3)cc12 [FG-4592] + O=C(CCCCCCC(=O)Nc1ccccc1)NO [Vorinostat] (partner 1 µM)
Method in brief: as §1

[3] = compound: Cc1nc(C(=O)NCC(=O)O)c(O)c2ccc(Oc3ccccc3)cc12 [FG-4592] + Cc1nc(NC(=O)N2CCC[C@H]2C(N)=O)sc1-c1ccnc(C(C)(C)C(F)(F)F)c1 [Alpelisib] (partner 2 µM)
Method in brief: as §1

[4] = compound: Cc1nc(C(=O)NCC(=O)O)c(O)c2ccc(Oc3ccccc3)cc12 [FG-4592] + C[C@]1(O)C[C@@H](c2nc(-c3ccc4ccc(-c5ccccc5)nc4c3)c3c(N)nccn32)C1 [Linsitinib] (partner 1 µM)
Method in brief: as §1

Row | Cell Line | relative viability ([1]; first compound 0.08 µM) | relative viability ([1]; first compound 0.253 µM) | relative viability ([1]; first compound 0.8 µM) | relative viability ([1]; first compound 2.53 µM) | relative viability ([1]; first compound 8 µM) | relative viability ([2]; first compound 0.08 µM) | relative viability ([2]; first compound 0.253 µM) | relative viability ([2]; first compound 2.53 µM) | relative viability ([2]; first compound 8 µM) | relative viability ([3]; first compound 0.08 µM) | relative viability ([3]; first compound 0.253 µM) | relative viability ([3]; first compound 0.8 µM) | relative viability ([3]; first compound 2.53 µM) | relative viability ([3]; first compound 8 µM) | relative viability ([2]; first compound 0.8 µM) | relative viability ([4]; first compound 0.08 µM) | relative viability ([4]; first compound 0.253 µM) | relative viability ([4]; first compound 0.8 µM) | relative viability ([4]; first compound 2.53 µM) | relative viability ([4]; first compound 8 µM)
1 | NCI-H522 | 0.739 | 0.738 | 0.727 | 0.594 | 0.574 | 0.962 | 0.794 | 0.724 | 0.89 |  |  |  |  |  |  |  |  |  |  | 
2 | HCC-15 | 0.626 | 0.626 | 0.674 | 0.614 | 0.701 | 0.975 | 0.796 | 0.82 | 0.829 | 0.883 | 0.856 | 0.913 | 0.871 | 0.915 | 0.776 | 0.874 | 0.805 | 0.93 | 0.831 | 0.914
3 | A-427 | 0.479 | 0.393 | 0.506 | 0.423 | 0.598 | 0.84 | 0.85 | 0.806 | 0.78 | 1.04 | 1.07 | 1.04 | 1.13 | 1.05 | 0.845 | 1.06 | 1.05 | 1.06 | 1.14 | 1.1
4 | NCI-H2228 | 0.596 | 0.402 | 0.42 | 0.643 | 0.376 | 0.592 | 0.408 | 0.583 | 0.449 | 0.536 | 0.545 | 0.759 | 0.766 | 0.637 | 0.77 | 0.586 | 0.628 | 0.795 | 0.612 | 0.727
5 | NCI-H1734 | 0.565 | 0.621 | 0.541 | 0.529 | 0.445 | 0.762 | 0.802 | 0.713 | 0.852 | 0.645 | 0.685 | 0.681 | 0.686 | 0.731 | 0.616 | 0.896 | 0.814 | 0.716 | 0.875 | 0.927
6 | PC-14 | 0.871 | 0.655 | 0.855 | 0.747 | 0.494 | 0.785 | 0.738 | 0.694 | 0.615 | 0.979 | 1 | 0.988 | 0.855 | 0.956 | 0.814 | 0.977 | 0.941 | 1 | 0.991 | 0.891
7 | NCI-H1915 | 0.521 | 0.59 | 0.683 | 0.579 | 0.578 | 0.452 | 0.489 | 0.442 | 0.468 | 1.04 | 1.02 | 1.05 | 1.01 | 1.05 | 0.469 | 1.06 | 1.07 | 1.19 | 1.11 | 1.07
8 | NCI-H1666 | 0.809 | 0.803 | 0.837 | 0.775 | 0.621 | 1.02 | 0.932 | 1.08 | 1.03 | 0.866 | 0.862 | 0.953 | 0.886 | 0.644 | 0.954 | 0.781 | 0.884 | 0.769 | 0.831 | 0.677
9 | HCC-366 | 0.455 | 0.934 | 0.784 | 0.484 | 0.703 | 0.263 | 0.269 | 0.308 | 0.33 | 0.285 | 0.386 | 0.408 | 0.377 | 0.392 | 0.185 | 0.443 | 0.571 | 0.551 | 0.693 | 0.517
10 | SK-MES-1 | 0.568 | 0.585 | 0.546 | 0.483 | 0.453 | 1.13 | 0.969 | 0.947 | 1.02 | 0.953 | 0.892 | 0.85 | 0.853 | 0.773 | 1.02 | 1.07 | 0.895 | 1.06 | 1.07 | 0.957
11 | SW 1573 | 0.556 | 0.537 | 0.63 | 0.536 | 0.561 | 0.708 | 0.965 | 0.543 | 0.494 | 0.781 | 0.733 | 0.852 | 0.857 | 0.616 | 0.604 | 0.732 | 0.714 | 0.893 | 0.721 | 0.782
12 | NCI-H661 | 0.712 | 0.688 | 0.688 | 0.763 | 0.668 | 0.778 | 0.827 | 0.755 | 0.839 | 0.386 | 0.581 | 0.626 | 0.835 | 0.727 | 0.832 | 0.475 | 0.588 | 0.55 | 0.678 | 0.446
13 | PC-3 [JPC-3] | 0.674 | 0.75 | 0.79 | 0.662 | 0.681 | 0.705 | 0.797 | 0.853 | 0.823 | 0.966 | 0.972 | 1.1 | 1 | 1.03 |  | 0.965 | 0.974 | 0.969 | 1.04 | 1.01
14 | NCI-H1623 | 0.447 | 0.447 | 0.468 | 0.416 | 0.419 |  |  |  |  |  |  |  |  |  |  |  |  |  |  | 
15 | Calu-6 |  |  |  |  |  |  |  |  |  | 0.952 | 0.846 | 1.12 | 0.985 | 0.969 |  | 0.863 | 0.942 | 0.941 | 0.859 | 0.993
16 | LC-2-ad | 0.838 | 0.753 |  | 0.591 | 0.661 | 0.715 | 0.645 | 0.637 | 0.683 | 0.799 | 0.842 | 0.865 | 0.943 | 0.926 | 0.782 | 0.81 | 0.757 | 0.878 | 0.816 | 0.911
17 | CAL-12T | 0.829 | 0.663 | 0.642 | 0.49 | 0.333 | 0.624 | 0.583 | 0.585 | 0.496 | 1.13 | 1.23 | 1.55 | 1.13 | 0.971 | 0.651 | 0.709 | 0.798 | 0.836 | 0.775 | 0.716
18 | RERF-LC-KJ | 0.606 | 0.503 | 0.565 | 0.505 | 0.567 | 0.672 | 0.629 | 0.486 | 0.701 | 0.804 | 0.749 | 0.723 | 0.651 | 0.774 | 0.705 | 0.835 | 0.958 | 0.919 | 0.901 | 0.82
